Measured values reported in PubChem BioAssay (NCI).
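Briefly, cells in 96-well plates were exposed to five compound concentrations for 48 h, and endpoints were estimated by linear interpolation. TGI marks complete inhibition of growth.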

Tests used:
Experiment in all cases: NCI anticancer screen, dose series, 48 h
[1] = tested on: SK-OV-3 ovarian
[2] = tested on: SK-MEL-5 melanoma
[3] = tested on: OVCAR-4 ovarian
[4] = tested on: ACHN renal
[5] = tested on: LOX IMVI melanoma
[6] = tested on: TK-10 renal
[7] = tested on: M14 melanoma
[8] = tested on: SF-268 CNS
[9] = tested on: NCI/ADR-RES ovarian
[10] = tested on: A549 NSCLC
[11] = tested on: NCI-H226 lung
[12] = tested on: HT29 colon
[13] = tested on: HL-60(TB) leukemia

Measured: TGI

Brc1ccc2c(c1)-c1nc3c(cc1CC2)CCc1ccc(Br)cc1-3
not listed: [12] | [13]
> 100 µM: all other assays above

COC(=O)C1=C(C)N2[C@H](C(=O)O)CS[C@@]2(C)[C@H](C(=O)OC)[C@H]1c1cccc([N+](=O)[O-])c1
not listed: [5] | [13]
> 100 µM: all other assays above

COC1OC2COC(C)(C)OC2C2OC(C)(C)OC12 (stereo not drawn)
76.2 µM: [11]
not listed: [5] | [13]
> 100 µM: all other assays above

O=c1oc2ccccc2c2nc3ccccc3cc12
47.7 µM: [3]
not listed: [5] | [8]
> 100 µM: all other assays above

CC(C)(C)c1ccc2c(c1)OCc1n[nH]c(n1)COc1cc(C(C)(C)C)ccc1OCCOCCO2
8.97 µM: [11]
17.3 µM: [8]
> 100 µM: [13]
10.3 µM: [12]
7.45 µM: [3]
8.14 µM: [6]
4.68 µM: [2]
14.3 µM: [10]
13.5 µM: [7]
15.3 µM: [1]
14.8 µM: [4]
12.4 µM: [9]

O=[N+]([O-])c1ccc2nc3c(nc2c1)-c1c2ccccc2cc2cccc-3c12
> 91.7 µM: [7]
> 23.6 µM: [5]
60.9 µM: [1]
28.3 µM: [9]
not listed: [4]
> 100 µM: all other assays above

O=C(CN=C(CN(c1ccccc1)c1ccccc1)Oc1c(Cl)cc(Cl)cc1Cl)n1cnc2ccccc21
not listed: [5]
> 100 µM: all other assays above

O=C(O)c1cc2ccccc2c(S(=O)(=O)O)c1O
not listed: [11]
> 100 µM: all other assays above

COc1cc(CCCOC2OC(COC3OCC(O)C(O)C3O)C(O)C(O)C2O)cc2cc(-c3ccc4c(c3)OCO4)oc12 (stereo not drawn)
not listed: [4] | [6] | [7]
> 175 µM: all other assays above

CCN(CC)C(=S)SS(=O)(=O)c1ccc(C)cc1
30.2 µM: [12]
30.4 µM: [2]
36.1 µM: [5]
28.2 µM: [7]
not listed: [10] | [13]
> 100 µM: all other assays above

Cc1cc(C)nc(NS(=O)(=O)c2ccc(Nc3c4ccccc4nc4c(C(=O)NCCO)cccc34)cc2)n1
36.6 µM: [2]
38.3 µM: [12]
97.5 µM: [3]
65 µM: [7]
58.6 µM: [8]
25.5 µM: [5]
not listed: [6] | [11]
> 100 µM: all other assays above

CCOC(=O)c1csc(NC(=O)CCCC#N)n1
not listed: [8]
> 100 µM: all other assays above

COc1cc2c(cc1OCCCOc1cc3c(cc1OC)C(=O)N1CCC[C@H]1CN3)N=C[C@@H]1CCCN1C2=O
0.68 µM: [13]
> 100 µM: [1]
0.473 µM: [8]
24.8 µM: [9]
> 36.5 µM: [3]
0.359 µM: [4]
10.8 µM: [5]
13.7 µM: [12]
> 28.1 µM: [10]
0.398 µM: [11]
0.24 µM: [7]
0.554 µM: [6]

COc1cc(OC)c(C2c3cc4c(cc3OC(N3CCOCC3)C2C)OCO4)c(OC)c1 (stereo not drawn)
82.4 µM: [4]
not listed: [1] | [3] | [11] | [13]
> 100 µM: all other assays above

COC(=O)c1cc(C(=O)OC)cc(-c2ccc3c(c2)-c2nc4c(c(-c5ccc(OC)cc5)c2CC3)CCc2ccc(-c3cc(C(=O)OC)cc(C(=O)OC)c3)cc2-4)c1
not listed: [5] | [12] | [13]
> 100 µM: all other assays above

CCC1C(=O)OCc2c1cc1n(c2=O)CCC12OCCO2 (stereo not drawn)
not listed: [9]
> 100 µM: all other assays above

CCOP(=O)(OCC)c1cc(-c2ccccc2)ccc1N
not listed: [5] | [11] | [13]
> 100 µM: all other assays above

C=C1CC2C(=O)N(c3ccccc3)C(=O)C2CC1n1[nH]c(=O)n(Cc2ccccc2)c1=O (stereo not drawn)
not listed: [9]
> 100 µM: all other assays above

Clc1cccc(C2ON=C(c3ccccc3)N2C23CC4CC(CC(C4)C2)C3)c1Cl (stereo not drawn)
not listed: [13]
> 10 µM: all other assays above
